Experimental data from the CheMixHub viscosity set.

Test: xn = mol fraction of the nth substance listed

COC(=O)c1ccccc1 + COCCO
viscosity [mPa·s], 101 kPa
Conditions	x2 = 0.0991	x2 = 0.2001	x2 = 0.3023	x2 = 0.3992	x2 = 0.4989	x2 = 0.5981	x2 = 0.699	x2 = 0.7991	x2 = 0.8983
298.15 K	1.735	1.689	1.686	1.675	1.646	1.675	1.668	1.699	1.693
303.15 K	1.571	1.523	1.524	1.511	1.478	1.508	1.5	1.525	1.522
308.15 K	1.427	1.385	1.378	1.366	1.34	1.362	1.356	1.375	1.372

CCOC(=O)CCl + COc1ccccc1
viscosity [mPa·s], 101.3 kPa
Conditions	x1 = 0.1012	x1 = 0.2027	x1 = 0.3	x1 = 0.3936	x1 = 0.4982	x1 = 0.6022	x1 = 0.6954	x1 = 0.7934	x1 = 0.8919
298.15 K	0.983	0.987	0.989	0.996	1.004	1.019	1.033	1.049	1.072
303.15 K	0.915	0.916	0.918	0.925	0.932	0.945	0.958	0.975	0.993
308.15 K	0.847	0.847	0.848	0.853	0.861	0.871	0.884	0.901	0.915

COC(=O)c1ccccc1 + COc1ccccc1
viscosity [mPa·s], 100 kPa
Conditions	x1 = 0.0898	x1 = 0.1468	x1 = 0.228	x1 = 0.3145	x1 = 0.4054	x1 = 0.5056	x1 = 0.6161	x1 = 0.7316	x1 = 0.8597
303.15 K	0.974	1.038	1.101	1.187	1.234	1.307	1.391	1.48	1.572
308.15 K	0.894	0.949	1.007	1.086	1.129	1.195	1.272	1.355	1.439
313.15 K	0.8	0.85	0.902	0.972	1.012	1.074	1.144	1.22	1.301

COC(=O)c1ccccc1 + CS(C)=O
303.15 K, 101 kPa
Conditions	viscosity [mPa·s]
x1 = 0.1946	1.757
x1 = 0.2734	1.752
x1 = 0.3608	1.751
x1 = 0.4584	1.751
x1 = 0.5683	1.723
x1 = 0.6931	1.682

C[N+](C)(C)C.[OH-] + CS(C)=O
viscosity [mPa·s], 100 kPa
Conditions	298.15 K	303.15 K	308.15 K	313.15 K
x1 = 0.0177	2.05	1.87	1.73	1.63
x1 = 0.0538	2.18	2.01	1.87	1.77
x1 = 0.091	2.24	2.07	1.94	1.86
x1 = 0.1294	2.34	2.18	2.06	1.98
x1 = 0.1691	2.44	2.3	2.18	2.1
x1 = 0.2101	2.55	2.42	2.3	2.23
x1 = 0.2314	2.61	2.48	2.36	2.3
x1 = 0.2961	2.76	2.64	2.54	2.48
x1 = 0.3645	2.9	2.81	2.71	2.65
x1 = 0.4366	3.04	2.94	2.86	2.81
x1 = 0.4868	3.12	3.03	2.95	2.91
x1 = 0.5388	3.18	3.1	3.02	2.98
x1 = 0.6206	3.25	3.17	3.09	3.07
x1 = 0.7071	3.26	3.2	3.12	3.1
x1 = 0.7677	3.23	3.18	3.1	3.06
x1 = 0.8307	3.15	3.12	3.05	3.02
x1 = 0.8963	3.03	3.02	2.94	2.9
x1 = 0.9647	2.86	2.84	2.76	2.71

O=C(O)CC(=O)O + C[N+](C)(C)CCO.[Cl-]
viscosity [mPa·s]
Conditions	293.15 K	293.2 K	298.15 K	303.15 K	303.2 K	308.15 K	313.15 K	313.2 K	318.15 K	323.15 K
100 kPa, x2 = 0.5	2016	–	1389	982.9	–	710.7	524.5	–	393.9	301.2
101 kPa, x2 = 0.5	1651	–	1084	679.6	–	486.4	372.5	–	286.5	207.2
101.3 kPa, x2 = 0.502	–	1600	–	–	1029	–	–	615	–	–

CCOC(=O)CCl + Cc1cc(C)cc(C)c1
viscosity [mPa·s], 101.3 kPa
Conditions	x1 = 0.1123	x1 = 0.2035	x1 = 0.2999	x1 = 0.4019	x1 = 0.4987	x1 = 0.5997	x1 = 0.6963	x1 = 0.7974	x1 = 0.8954
298.15 K	0.693	0.712	0.745	0.775	0.811	0.853	0.902	0.964	1.023
303.15 K	0.653	0.669	0.698	0.725	0.759	0.798	0.841	0.899	0.949
308.15 K	0.612	0.627	0.652	0.677	0.708	0.741	0.779	0.829	0.874

CCCCOCCO + Cc1ccc(C)cc1
viscosity [mPa·s], 101 kPa
Conditions	298.15 K	308.15 K
x1 = 0.0541	0.566	0.647
x1 = 0.1518	0.625	0.725
x1 = 0.2496	0.695	0.817
x1 = 0.3502	0.784	0.933
x1 = 0.451	0.894	1.076
x1 = 0.5028	0.961	1.162
x1 = 0.5533	1.033	1.256
x1 = 0.6489	1.194	1.465
x1 = 0.7493	1.404	1.739
x1 = 0.8519	1.676	2.092
x1 = 0.9561	2.029	2.551
